Experimental data as given in ChEMBL document CHEMBL1932982, “Virtual ligand screening of α-glucosidase: Identification of a novel potent noncarbohydrate mimetic inhibitor” (Bioorg Med Chem Lett, 2012).
Calls of active or inactive are those of the source. The calls are words filed in the database; no cut-off is given here.

Assays:
[1] = Inhibition of Saccharomyces cerevisiae alpha-glucosidase using 4-nitrophenyl alpha-D-glucopyranoside as substrate preincubated for 120 mins
Saccharomyces cerevisiae [2] = test: Irreversible inhibition of Saccharomyces cerevisiae alpha-glucosidase using 4-nitrophenyl alpha-D-glucopyranoside as substrate at 300 uM after 30 mins
Saccharomyces cerevisiae [3] = test: Inhibition of Saccharomyces cerevisiae alpha-glucosidase using 4-nitrophenyl alpha-D-glucopyranoside as substrate
Saccharomyces cerevisiae [4] = test: Time dependent inhibition of Saccharomyces cerevisiae alpha-glucosidase using 4-nitrophenyl alpha-D-glucopyranoside as substrate

Structure (SMILES)	IC50 [1]	inhibition (Saccharomyces cerevisiae [2])	inhibition (Saccharomyces cerevisiae [3])	TDI (Saccharomyces cerevisiae [4])
CC(C)(C)C1CCc2c(sc(NC(=O)CC3SC(N)=NC3=O)c2C#N)C1 (racemic) [listing 1 of 2 here]		Active	Active	Active
CC(C)(C)C1CCc2c(sc(NC(=O)CC3SC(N)=NC3=O)c2C#N)C1 (single isomer, unassigned; enantiomer 1)			inactive	
CC(C)(C)C1CCc2c(sc(NC(=O)CC3SC(N)=NC3=O)c2C#N)C1 (racemic) [listing 2 of 2 here]	27.1 µM			

Next, values leading:

IC50 [1]	inhibition (Saccharomyces cerevisiae [2])	inhibition (Saccharomyces cerevisiae [3])	TDI (Saccharomyces cerevisiae [4])	Structure (SMILES)
2.47 µM				N#Cc1c(NC(=O)CC2SC(N)=NC2=O)sc2c1CCCCCC2 (racemic) [listing 1 of 2 here]
	Active	Active	Active	N#Cc1c(NC(=O)CC2SC(N)=NC2=O)sc2c1CCCCCC2 (racemic) [listing 2 of 2 here]
		inactive		N#Cc1c(NC(=O)CC2SC(N)=NC2=O)sc2c1CCCCCC2 (single isomer, unassigned; enantiomer 1)
		inactive		CC(C)(C)C1CCc2c(sc(NC(=O)CC3SC(N)=NC3=O)c2C#N)C1 (single isomer, unassigned; enantiomer 2)
		inactive		N#Cc1c(NC(=O)CC2SC(N)=NC2=O)sc2c1CCCCCC2 (single isomer, unassigned; enantiomer 2)
